Reference: ChEMBL document CHEMBL1909046, “DrugMatrix in vitro pharmacology data”
pIC50, pKi: −log10 of the molar value.

Columns and labels:
[1] = biological target: T1, Angiotensin-converting enzyme (Oryctolagus cuniculus, UniProt P12822); format: tissue-based, Lung;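 also: enzymatic inhibition of angiotensin-converting enzyme measured with FAPGG as the substrate; in other assays of this panel Not Active means under 50% inhibition at 10 µM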
T1 sequence (P12822 whole entry): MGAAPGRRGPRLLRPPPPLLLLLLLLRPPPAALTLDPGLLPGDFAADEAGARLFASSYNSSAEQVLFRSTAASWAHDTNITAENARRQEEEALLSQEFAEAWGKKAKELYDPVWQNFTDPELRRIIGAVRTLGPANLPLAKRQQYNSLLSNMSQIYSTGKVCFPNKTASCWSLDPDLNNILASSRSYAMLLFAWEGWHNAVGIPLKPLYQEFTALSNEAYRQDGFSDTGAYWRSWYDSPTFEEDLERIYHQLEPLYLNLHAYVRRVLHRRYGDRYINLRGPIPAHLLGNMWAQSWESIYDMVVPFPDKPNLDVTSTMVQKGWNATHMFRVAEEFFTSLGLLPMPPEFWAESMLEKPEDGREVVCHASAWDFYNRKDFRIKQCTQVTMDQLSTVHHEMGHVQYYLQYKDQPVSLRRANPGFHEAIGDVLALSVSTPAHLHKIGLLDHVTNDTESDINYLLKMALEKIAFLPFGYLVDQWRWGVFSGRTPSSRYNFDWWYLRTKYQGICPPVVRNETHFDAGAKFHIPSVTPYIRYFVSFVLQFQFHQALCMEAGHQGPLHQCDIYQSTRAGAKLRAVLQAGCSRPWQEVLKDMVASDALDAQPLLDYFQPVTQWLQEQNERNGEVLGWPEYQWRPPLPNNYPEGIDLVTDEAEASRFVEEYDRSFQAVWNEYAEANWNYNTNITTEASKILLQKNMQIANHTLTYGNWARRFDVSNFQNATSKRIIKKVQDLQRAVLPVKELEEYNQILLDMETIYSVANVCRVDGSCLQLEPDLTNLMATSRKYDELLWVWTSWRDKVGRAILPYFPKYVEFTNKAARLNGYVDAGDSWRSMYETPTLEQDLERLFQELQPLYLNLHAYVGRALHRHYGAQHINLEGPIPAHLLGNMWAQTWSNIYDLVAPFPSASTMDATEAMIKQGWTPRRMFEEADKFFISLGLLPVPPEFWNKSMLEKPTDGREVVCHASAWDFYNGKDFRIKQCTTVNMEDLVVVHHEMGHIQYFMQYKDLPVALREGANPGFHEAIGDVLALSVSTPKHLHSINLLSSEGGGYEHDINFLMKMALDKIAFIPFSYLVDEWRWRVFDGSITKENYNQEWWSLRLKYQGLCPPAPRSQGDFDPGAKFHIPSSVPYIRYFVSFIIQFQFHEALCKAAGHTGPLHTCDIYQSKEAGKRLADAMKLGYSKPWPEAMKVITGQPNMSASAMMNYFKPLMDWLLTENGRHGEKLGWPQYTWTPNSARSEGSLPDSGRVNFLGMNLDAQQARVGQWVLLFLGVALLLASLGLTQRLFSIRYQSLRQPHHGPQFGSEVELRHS

[2] = biological target: Protein kinase C alpha type (Homo sapiens, UniProt P17252); format: cell-based; conditions: sf9;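 also: inhibition of PKCalpha kinase activity measured in an enzyme assay with histone as the phosphorylation substrate; in other assays of this panel Not Active means under 50% inhibition at 10 µM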
[3] = DRUGMATRIX: Tumor Necrosis Factor (TNF), Non-Selective radioligand binding (ligand: [125I] TNF-alpha); format: cell membranes, Membrane; conditions: u-937; Not Active = under 50% inhibition at 10 µM
[4] = biological target: T2, 5-hydroxytryptamine receptor 1A (Rattus norvegicus, UniProt P19327); format: cell membranes, CHO-K1, Membrane; conditions: for IC50: cho-k1; as to all read-outs here: in other assays of this panel Not Active means under 50% inhibition at 10 µM
T2 sequence (P19327 whole entry): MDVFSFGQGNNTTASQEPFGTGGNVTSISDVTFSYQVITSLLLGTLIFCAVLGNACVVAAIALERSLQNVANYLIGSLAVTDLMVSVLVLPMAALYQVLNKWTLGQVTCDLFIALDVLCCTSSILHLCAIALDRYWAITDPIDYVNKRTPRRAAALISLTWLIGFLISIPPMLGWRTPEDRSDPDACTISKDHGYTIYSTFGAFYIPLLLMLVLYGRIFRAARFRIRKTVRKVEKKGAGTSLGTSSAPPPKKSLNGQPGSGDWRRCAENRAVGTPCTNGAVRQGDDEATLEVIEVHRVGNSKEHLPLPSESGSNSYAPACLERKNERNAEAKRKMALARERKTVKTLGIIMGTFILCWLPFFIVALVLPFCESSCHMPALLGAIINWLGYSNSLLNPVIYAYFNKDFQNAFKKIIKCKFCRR

[5] = biological target: Platelet-activating factor receptor (Homo sapiens, UniProt P25105); assay: biochemical; format: tissue-based; conditions: platelet; also: in other assays of this panel Not Active means under 50% inhibition at 10 µM
[6] = biological target: T3, 5-hydroxytryptamine receptor 2C (Homo sapiens, UniProt P28335); assay: DRUGMATRIX: Serotonin (5-Hydroxytryptamine) 5-HT2C radioligand binding (ligand: [3H] Mesulergine); format: cell membranes, CHO-K1, Membrane; conditions: Not Active = under 50% inhibition at 10 µM; for IC50: cho-k1
T3 sequence (P28335 whole entry): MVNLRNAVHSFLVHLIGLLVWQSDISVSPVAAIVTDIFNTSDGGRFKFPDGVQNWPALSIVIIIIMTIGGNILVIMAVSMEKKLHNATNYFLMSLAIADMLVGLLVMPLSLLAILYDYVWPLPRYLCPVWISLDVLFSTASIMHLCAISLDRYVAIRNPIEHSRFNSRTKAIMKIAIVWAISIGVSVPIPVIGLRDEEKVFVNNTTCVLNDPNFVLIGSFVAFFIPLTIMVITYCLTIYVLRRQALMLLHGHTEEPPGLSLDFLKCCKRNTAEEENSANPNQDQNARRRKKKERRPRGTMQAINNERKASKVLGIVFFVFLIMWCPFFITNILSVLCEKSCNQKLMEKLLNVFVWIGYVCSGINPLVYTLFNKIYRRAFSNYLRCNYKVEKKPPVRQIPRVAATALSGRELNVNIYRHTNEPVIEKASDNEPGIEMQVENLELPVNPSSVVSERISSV

Platelet-activating factor receptor, sequence (P25105 whole entry): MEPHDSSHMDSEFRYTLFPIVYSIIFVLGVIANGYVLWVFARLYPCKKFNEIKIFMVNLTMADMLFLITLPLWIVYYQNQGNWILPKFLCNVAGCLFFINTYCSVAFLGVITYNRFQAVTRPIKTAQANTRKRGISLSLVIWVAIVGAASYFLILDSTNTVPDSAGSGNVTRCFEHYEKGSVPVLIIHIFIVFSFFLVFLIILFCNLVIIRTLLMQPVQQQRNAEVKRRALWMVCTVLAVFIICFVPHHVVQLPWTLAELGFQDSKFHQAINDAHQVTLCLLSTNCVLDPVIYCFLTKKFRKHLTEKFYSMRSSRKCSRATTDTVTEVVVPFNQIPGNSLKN

CCOC(=O)n1ccn(C)c1=S [CARBIMAZOLE]
IC50 [1]: Not Active
IC50 [2]: Not Active
IC50 [3]: Not Active
Ki [3]: Not Active
IC50 [4]: Not Active
IC50 [5]: Not Active
IC50 [6]: Not Active

COc1ccc(Cc2nccc3cc(OC)c(OC)cc23)cc1OC [PAPAVERINE]
IC50 [1]: Not Active
IC50 [2]: Not Active
IC50 [3]: Not Active
Ki [3]: Not Active
IC50 [4]: Not Active
IC50 [5]: Not Active
IC50 [6]: Not Active

C#C[C@]1(O)CC[C@H]2[C@@H]3CCc4cc(O)ccc4[C@H]3CC[C@@]21C [ETHINYL ESTRADIOL]
IC50 [1]: Not Active
IC50 [2]: Not Active
IC50 [3]: Not Active
Ki [3]: Not Active
IC50 [4]: Not Active
IC50 [5]: Not Active
IC50 [6]: Not Active

C[C@H]([C@](O)(Cn1cncn1)c1ccc(F)cc1F)S(C)(=O)=O [GENACONAZOLE]
IC50 [1]: Not Active
IC50 [2]: Not Active
IC50 [3]: Not Active
Ki [3]: Not Active
IC50 [4]: Not Active
IC50 [5]: Not Active
IC50 [6]: Not Active

CCOC(=O)C1=C(C)NC(C)=C(C(=O)OC)C1c1cccc(Cl)c1Cl (stereo not given) [FELODIPINE]
IC50 [1]: Not Active
IC50 [2]: Not Active
IC50 [3]: Not Active
Ki [3]: Not Active
IC50 [4]: Not Active
IC50 [5]: Not Active
IC50 [6]: Not Active

CC(C)C[C@H]1C(=O)N2CCC[C@H]2[C@]2(O)O[C@](NC(=O)[C@@H]3C=C4c5cccc6[nH]c(Br)c(c56)C[C@H]4N(C)C3)(C(C)C)C(=O)N12 [BROMOCRIPTINE]
IC50 [1]: Not Active
IC50 [2]: Not Active
IC50 [3]: Not Active
Ki [3]: Not Active
pIC50 ([4]; read-out: IC50): 8.25
pKi ([4]; read-out: Ki): 8.49
IC50 [5]: Not Active
pIC50 ([6]; read-out: IC50): 6.27
pKi ([6]; read-out: Ki): 6.56

C[C@@H]1CC[C@H]2[C@@H](C)C(=O)O[C@@H]3O[C@@]4(C)CC[C@@H]1[C@]32OO4 [ARTEMISININ]
IC50 [1]: Not Active
IC50 [2]: Not Active
IC50 [3]: Not Active
Ki [3]: Not Active
IC50 [4]: Not Active
IC50 [5]: Not Active
IC50 [6]: Not Active

CN1C(=O)CN=C(c2ccccc2)c2cc(Cl)ccc21 [DIAZEPAM]
IC50 [1]: Not Active
IC50 [2]: Not Active
IC50 [3]: Not Active
Ki [3]: Not Active
IC50 [4]: Not Active
IC50 [5]: Not Active
IC50 [6]: Not Active

Nn1nnc2ccccc21
IC50 [1]: Not Active
IC50 [2]: Not Active
IC50 [3]: Not Active
Ki [3]: Not Active
IC50 [4]: Not Active
IC50 [5]: Not Active
IC50 [6]: Not Active

CC(C)(CO)C(O)C(=O)NCCCO (stereo not given) [PANTHENOL]
IC50 [1]: Not Active
IC50 [2]: Not Active
IC50 [3]: Not Active
Ki [3]: Not Active
IC50 [4]: Not Active
IC50 [5]: Not Active
IC50 [6]: Not Active

O=C(O)Cc1ccc(-c2ccccc2)cc1 [FELBINAC]
IC50 [1]: Not Active
IC50 [2]: Not Active
IC50 [3]: Not Active
Ki [3]: Not Active
IC50 [4]: Not Active
IC50 [5]: Not Active
IC50 [6]: Not Active

O=C(O)c1cccnc1 [NIACIN]
IC50 [1]: Not Active
IC50 [2]: Not Active
IC50 [3]: Not Active
Ki [3]: Not Active
IC50 [4]: Not Active
IC50 [5]: Not Active
IC50 [6]: Not Active

C[C@H](C(=O)O)c1cccc(C(=O)c2ccccc2)c1 [DEXKETOPROFEN]
IC50 [1]: Not Active
IC50 [2]: Not Active
IC50 [3]: Not Active
Ki [3]: Not Active
IC50 [4]: Not Active
IC50 [5]: Not Active
IC50 [6]: Not Active

CC[C@H]1OC(=O)[C@H](C)[C@@H](O[C@H]2C[C@@](C)(OC)[C@@H](O)[C@H](C)O2)[C@H](C)[C@@H](O[C@@H]2O[C@H](C)C[C@H](N(C)C)[C@H]2O)[C@](C)(OC)C[C@@H](C)C(=O)[C@H](C)[C@@H](O)[C@]1(C)O [CLARITHROMYCIN]
IC50 [1]: Not Active
IC50 [2]: Not Active
IC50 [3]: Not Active
Ki [3]: Not Active
IC50 [4]: Not Active
IC50 [5]: Not Active
IC50 [6]: Not Active
